Experiment [1] concerns cotton aphid (Aphis gossypii). Briefly: cotton aphid test on cucumber seedling. Format: in vivo. Particulars: 144 h, 500 ppm spray on infested cucumber seedling, counted after 6 days, read-out: Controlling value (%).
Experiment [2] has as its system cabbage moth (Plutella xylostella). In words: cabbage moth mortality test on cabbage seedling. Particulars: 120 h, 500 ppm spray on cabbage seedling, five second instar larvae, counted after 5 days, read-out: Morality (%). Format: in vivo. The source says:
Any of the present compounds 1-4, 1-5, 1-6, 3-9, 3-13, 3-17, 3-23, 3-25, 3-26, 3-29, 3-31, 4-1 or 5-3, each of which was made to a formulation according to the similar method to that of Formulation Example 6, was mixed with water so as to be 500 ppm. The mixtures were sprayed to foliar parts of the cabbage seedling (on the developmental stage of the second to third true leaf) that was planted in a container so as to adhere adequately on the leaves of the above-mentioned cabbage. After the spraying, the stem and leaf of the seedling was cut out and then was installed into the container that was covered with the filter paper. Five heads of cabbage moth (Plutella xylostella) at the second instar larval stages were released into the cup. After 5 days, the surviving insects were counted, and the mortality of insects was calculated by the following equation. Morality (%)={1−the number of the surviving insects/5}×100

Some results are limits rather than exact numbers.

Regarding `CCC(=NN=C1COc2ccccc21)OCc1c(C)cccc1-n1nnn(C)c1=O` [E-10], the pest or weed control at 500 ppm in experiment [1] is at least 60%.
For the compound `CCC(=NN=C1CCOc2cc(OC)ccc21)OCc1c(C)cccc1-n1nnn(C)c1=O` [E-30], the pest or weed control at 500 ppm in experiment [2] is at least 80%; in experiment [1] it was at least 60%.
In the case of `CCC(=NN=C(C)c1ccc2c(c1)CCO2)OCc1c(C)cccc1-n1nnn(C)c1=O` [D-2], the pest or weed control at 500 ppm in experiment [2] is at least 80%; in experiment [1], at least 60%.
For `CCC(=NN=C(C)C(C)=NOC(C)C)OCc1c(C)cccc1-n1nnn(C)c1=O` [A-3] the same measures were at least 80% and at least 60%.
Consider `CSC(=NCC1CCOCC1)SCc1c(C)cccc1-n1nnn(C)c1=O` [3-23], for which the pest or weed control at 500 ppm in experiment [2] is at least 80%.
Take `CCC(=NN=C1CCOc2ccc(C)cc21)OCc1c(C)cccc1-n1nnn(C)c1=O` [E-26]: the pest or weed control at 500 ppm is at least 80% in experiment [2] and at least 60% in experiment [1].
For `CCC(=NN=C1CCOc2cc(F)cc(F)c21)OCc1c(C)cccc1-n1nnn(C)c1=O` [E-24] the same measures were at least 80% and at least 60%.
Take `CSC(=NC(C)(C)C)SCc1c(C)cccc1-n1nnn(C)c1=O` [3-17]: in experiment [2], the pest or weed control at 500 ppm is at least 80%.
In the case of `CCC(=NN=C(C)c1ccc2c(ccn2C)c1)OCc1c(C)cccc1-n1nnn(C)c1=O` [D-7], in experiment [1], the pest or weed control at 500 ppm is at least 60%.
The same measure, in the same setting: the value for `CCC(=NN=C1CCc2cc(F)ccc21)OCc1c(C)cccc1-n1nnn(C)c1=O` [E-3] was at least 60%.
For `CC(=NOCc1c(C)cccc1-n1nnn(C)c1=O)OCCCc1ccccc1` [5-3], the pest or weed control at 500 ppm in experiment [2] is at least 80%; in experiment [1], at least 60%.
Consider `CSC(=NCCc1ccccc1Cl)SCc1c(C)cccc1-n1nnn(C)c1=O` [3-31], for which, in experiment [2], the pest or weed control at 500 ppm was at least 80%.
For the compound `CCC(=NN=C1CCc2ccc(F)cc21)OCc1c(C)cccc1-n1nnn(C)c1=O` [E-4], the pest or weed control at 500 ppm in experiment [1] was at least 60%.
As for `CCC(=NN=C1CC[S+]([O-])c2ccccc21)OCc1c(C)cccc1-n1nnn(C)c1=O` (stereo not shown) [E-29], the pest or weed control at 500 ppm is at least 80% in experiment [2] and at least 60% in experiment [1].
For `CSC(=NCCCCc1ccccc1)SCc1c(C)cccc1-n1nnn(C)c1=O` [3-29] the same measures were at least 80% and at least 60%.
Regarding `CCC(=NN=C(C)c1cnccn1)OCc1c(C)cccc1-n1nnn(C)c1=O` [1-4], the pest or weed control at 500 ppm was at least 80% in experiment [2] and at least 60% in experiment [1].
On to `CCC(=NN=C1CCc2ccc(OC)cc21)OCc1c(C)cccc1-n1nnn(C)c1=O` [E-8], for which the pest or weed control at 500 ppm in experiment [1] is at least 60%.
Same read-out and setting: the value for `CCSC(=NCCc1ccccc1)SCc1c(C)cccc1-n1nnn(C)c1=O` [3-1] was at least 60%.
For the compound `CCC(=NN=C(C)c1nc2ccccc2s1)OCc1c(C)cccc1-n1nnn(C)c1=O` [1-5], in experiment [2], the pest or weed control at 500 ppm is at least 80%.
On to `C=CCON=C(C)C(C)=NN=C(CC)OCc1c(C)cccc1-n1nnn(C)c1=O` [C-2], for which the pest or weed control at 500 ppm is at least 80% in experiment [2] and at least 60% in experiment [1].
In the same order, the values of `CCC(=NN=C1CCCc2ccccc21)OCc1c(C)cccc1-n1nnn(C)c1=O` [E-25] are at least 80% and at least 60%.
In the case of `CCC(=NN=C(C)C(C)=NOCc1ccccc1C)OCc1c(C)cccc1-n1nnn(C)c1=O` [C-7], the pest or weed control at 500 ppm in experiment [1] is at least 60%.
As for `CCC(=NN=C(C)C(C)=NOCc1ccccc1)OCc1c(C)cccc1-n1nnn(C)c1=O` [C-1], the pest or weed control at 500 ppm in experiment [2] is at least 80%; in experiment [1], at least 60%.
For `CCC(=NN=C(C)C(C)=NO)OCc1c(C)cccc1-n1nnn(C)c1=O` [B-1], in experiment [2], the pest or weed control at 500 ppm was at least 80%.
Regarding `CCC(=NN=C(C)c1ccc2c(c1)OCO2)OCc1c(C)cccc1-n1nnn(C)c1=O` [D-8], the figures for the pest or weed control at 500 ppm in experiment [2] and in experiment [1] were at least 80% and at least 60%, respectively.
As to `CCC(=NN=C1CCc2c(F)cccc21)OCc1c(C)cccc1-n1nnn(C)c1=O` [E-2], the pest or weed control at 500 ppm in experiment [1] was at least 60%.
For `CSC(=NCCc1ccccc1F)SCc1c(C)cccc1-n1nnn(C)c1=O` [3-25], the pest or weed control at 500 ppm in experiment [2] was at least 80%.
For `CCC(=NN=C(C)c1cnc2ccccc2c1)OCc1c(C)cccc1-n1nnn(C)c1=O` [D-5], the pest or weed control at 500 ppm in experiment [2] was at least 80%; in experiment [1] it was at least 60%.
Take `CCC(=NN=C1CCOc2ccccc21)OCc1c(C)cccc1-n1nnn(C)c1=O` [E-11]: the pest or weed control at 500 ppm in experiment [1] is at least 60%.
Take `CCC(=NN=C1CCOc2ccccc21)OCc1c(Cl)cccc1-n1nnn(C)c1=O` [E-13]: the pest or weed control at 500 ppm in experiment [2] was at least 80%.
Consider `CC(=NN=C(OCc1c(C)cccc1-n1nnn(C)c1=O)N(C)C)c1ccc(F)cc1` [1-6], for which the pest or weed control at 500 ppm in experiment [2] was at least 80%.
The same measure, in the same setting: the value for `CCC(=NN=C1CCc2cccc(F)c21)OCc1c(C)cccc1-n1nnn(C)c1=O` [E-5] was at least 80%.
`CCC(=NN=C(C)c1cccc2c1OC(F)(F)O2)OCc1c(C)cccc1-n1nnn(C)c1=O` [D-9]: the pest or weed control at 500 ppm in experiment [1] is at least 60%.
As for `CSC(=NCc1ccc(C)cc1)SCc1c(C)cccc1-n1nnn(C)c1=O` [3-12], the pest or weed control at 500 ppm in experiment [1] was at least 60%.
On to `COc1ccccc1CN=C(SC)SCc1c(C)cccc1-n1nnn(C)c1=O` [3-13], for which the pest or weed control at 500 ppm in experiment [2] is at least 80%.
As to `CCC(=NN=C1CCSc2ccccc21)OCc1c(C)cccc1-n1nnn(C)c1=O` [E-28], the values for the pest or weed control at 500 ppm in experiment [2] and in experiment [1] were at least 80% and at least 60%, respectively.
Take `CCc1ccc(N=C(SC)SCc2c(C)cccc2-n2nnn(C)c2=O)cc1` [3-8]: in experiment [1], the pest or weed control at 500 ppm was at least 60%.
As to `CCC(=NN=C(C)c1ccn(C)n1)OCc1c(C)cccc1-n1nnn(C)c1=O` [D-19], in experiment [2], the pest or weed control at 500 ppm was at least 80%.
`CCC(=NN=C(C)c1cc2ccccc2n1C)OCc1c(C)cccc1-n1nnn(C)c1=O` [D-6]: the pest or weed control at 500 ppm in experiment [1] was at least 60%.
Take `CC=CCON=C(C)C(C)=NN=C(CC)OCc1c(C)cccc1-n1nnn(C)c1=O` [C-3]: the values for the pest or weed control at 500 ppm in experiment [2] and in experiment [1] were at least 80% and at least 60%, respectively.
For `CCC(=NN=C(C)C(C)=NOCc1cccc(OC)c1)OCc1c(C)cccc1-n1nnn(C)c1=O` [C-10] the same measures were at least 80% and at least 60%.
With `CSC(=NCCc1cccc(F)c1)SCc1c(C)cccc1-n1nnn(C)c1=O` [3-26], the pest or weed control at 500 ppm in experiment [2] was at least 80%.
`CCC(=NN=C1CCOc2ccccc21)OCc1c(C2CC2)cccc1-n1nnn(C)c1=O` [E-14]: the pest or weed control at 500 ppm in experiment [2] was at least 80%; in experiment [1], at least 60%.
Consider `CCC(=NN=C1CCOc2cccc(F)c21)OCc1c(C)cccc1-n1nnn(C)c1=O` [E-21], for which the pest or weed control at 500 ppm in experiment [2] was at least 80%.
For `CSC(=Nc1cccc(C(F)(F)F)c1)SCc1c(C)cccc1-n1nnn(C)c1=O` [4-1], the pest or weed control at 500 ppm in experiment [2] is at least 80%.
For the compound `CCC(=NN=C(C)c1cc2ccccc2s1)OCc1c(C)cccc1-n1nnn(C)c1=O` [1-3], the pest or weed control at 500 ppm in experiment [1] was at least 60%.
Take `CCON=C(C)C(C)=NN=C(CC)OCc1c(C)cccc1-n1nnn(C)c1=O` [A-2]: the pest or weed control at 500 ppm in experiment [1] is at least 60%.
For the compound `CCC(=NN=C(C)C(C)=NOCc1cccc(C)c1)OCc1c(C)cccc1-n1nnn(C)c1=O` [C-11], the pest or weed control at 500 ppm is at least 80% in experiment [2] and at least 60% in experiment [1].
As to `CCC(=NN=C(C)C(C)=NOCC#N)OCc1c(C)cccc1-n1nnn(C)c1=O` [C-13], the pest or weed control at 500 ppm in experiment [2] is at least 80%.
With `CSC(=NCc1cccc(C)c1)SCc1c(C)cccc1-n1nnn(C)c1=O` [3-11], the pest or weed control at 500 ppm in experiment [1] is at least 60%.
With `CCC(=NN=C(C)C(C)=NOCCOC)OCc1c(C)cccc1-n1nnn(C)c1=O` [C-14], the pest or weed control at 500 ppm in experiment [2] was at least 80%; in experiment [1] it was at least 60%.
On to `CCC(=NN=C(C)c1cc2ccccc2o1)OCc1c(C)cccc1-n1nnn(C)c1=O` [1-2], for which the pest or weed control at 500 ppm in experiment [1] was at least 60%.
Take `C#CCON=C(C)C(C)=NN=C(CC)OCc1c(C)cccc1-n1nnn(C)c1=O` [C-5]: in experiment [2], the pest or weed control at 500 ppm is at least 80%.
Turning to `CCC(=NN=C(C)C(C)=NOCc1ccc(OC)cc1)OCc1c(C)cccc1-n1nnn(C)c1=O` [C-12], the pest or weed control at 500 ppm in experiment [2] is at least 80%; in experiment [1], at least 60%.
Regarding `CCC(=NN=C1CCOc2c(F)ccc(F)c21)OCc1c(C)cccc1-n1nnn(C)c1=O` [E-27], the pest or weed control at 500 ppm in experiment [2] was at least 80%; in experiment [1], at least 60%.
Regarding `CSC(=Nc1ccc(F)cc1)SCc1c(C)cccc1-n1nnn(C)c1=O` [4-6], the pest or weed control at 500 ppm in experiment [1] is at least 60%.
Consider `CCC(=NN=C(C)c1c(C)nn(C)c1Cl)OCc1c(C)cccc1-n1nnn(C)c1=O` [D-1], for which the figures for the pest or weed control at 500 ppm in experiment [2] and in experiment [1] were at least 80% and at least 60%, respectively.
`CSC(=NCc1ccccc1)SCc1c(C)cccc1-n1nnn(C)c1=O` [3-9]: the pest or weed control at 500 ppm in experiment [2] is at least 80%.
With `CCC(=NN=C1CCOc2ccccc21)OCc1c(OC)cccc1-n1nnn(C)c1=O` [E-12], the results for the pest or weed control at 500 ppm in experiment [2] and in experiment [1] were at least 80% and at least 60%, respectively.
In the same order, the values of `CCC(=NN=C(C)c1ccc2scnc2c1)OCc1c(C)cccc1-n1nnn(C)c1=O` [D-3] are at least 80% and at least 60%.

The record behind these values is patent publication US11225470B2, “Tetrazolinone compounds and its use as pest control agents” (SUMITOMO CHEMICAL COMPANY, LIMITED, priority 2016, dated 2022).
